{"source": "patent US20170003277A1", "about": "(priority 2015, published 2017)", "system": "THP-1 human monocyte cell line", "type": "cell-based", "details": "for Number of genes significantly modulated by Copaxone relative to mannitol: FDR-adjusted p<0.05", "experimental": "Prior to treatment cells were passed and plated in a 6-well plate at a concentration of 1.0×10^6 cells/mL. Cells were allowed to recover for four hours after passage (prior to treatment). […] Each sample was analyzed in six replicates. Cells were treated for 6, 12, and 24 hours. Following treatment time cells were lysed using a Qiagen® based lysis kit. Prior to RNA isolation samples were randomized in order to avoid batch effect. Total RNA was isolated using Qiagen® RNeasy kit. RNA quality was assessed by determining the absorbance ratio 260/280 nm as well as electrophoresis bioanalyzer with 260/280 ratio of 1.9-2.1 and RIN of above 9 were deemed acceptable. Gene expression was measured using Affymetrix® U133 plus 2.0 format. Sample processing was executed according to established manufacturer protocols. The scheme in (FIG. 2) illustrates the general experimental outline.\nRNA from THP-1 cells was extracted and expression profiled across the entire genome using the Affymetrix Human Genome U133 Plus 2.0 chip, interrogating a total of over 47,000 transcripts. Four batches of Copaxone® and one batch of Probioglat were comparatively tested in six biological replicates each. Key identified genes were independently evaluated for level of gene expression by quantitative Real-Time PCR of samples collected in the same experiments.\nmRNA expression levels were compared between GA and control (mannitol) tested with 6 sample replicates for each of 4 batches of GA and for mannitol, using LIMMA (Sim et al., Nat. Biotechnol. 2011) (Methods). […] We chose 6h for initial downstream analysis since this timepoint reflects the greatest impact of treatment. […] Rather, this decrease in number of genes affected from early to later timepoints represents an attribute of the response of the cells to the drug.\nTo identify differences between branded GA and differently manufactured glatiramoids, differential gene expression analysis was performed to compare directly between profiles induced by branded GA and by the purported generic glatiramoid, Probioglat. The standard R LIMMA bioconductor package was utilized to measure differentially expressed probesets across the entire microarray. To compare GA and Probioglat, comparisons were corrected to compare each treatment relative to mannitol control (i.e., [GA vs mannitol] was compared via LIMMA to [Probioglat vs mannitol]). Probesets were filtered by calls of presence on the chip for the relevant samples in the comparison (to be considered present at a given timepoint, a probeset was required to have on average a call of present or marginal across the relevant samples at that timepoint). Probesets were mapped to genes using the annotation available for the U133 Plus 2.0 chip from Affymetrix. FDR adjusted p values reported for genes represent the lowest FDR adjusted p value for present probesets for that gene.", "key": {"[1]": {"details": "6 hr, FDR p < 1e−5, |FC| >= 1.3"}, "[2]": {"details": "6 hr, FDR p < 1e−5, |FC| >= 1.5"}, "[3]": {"details": "6 hr, nominal p < 0.05, vs mannitol"}, "[4]": {"details": "12 hr, FDR p < 1e−5, |FC| >= 1.3"}, "[5]": {"details": "12 hr, FDR p < 1e−5, |FC| >= 1.5"}, "[6]": {"details": "24 hr, FDR p < 1e−5, |FC| >= 1.3"}, "[7]": {"details": "24 hr, FDR p < 1e−5, |FC| >= 1.5"}}, "note": "“And” between values parts separate entries of the source, which are not always exact repeats. Equal entries are not always repeated. Where two headings read alike, the source gives them in different places."}
{"substance": "glatiramer acetate [Copaxone®]", "values": [{"measurement": "raw.FC 202434_s_at CYP1B1", "result": 2.203}, {"measurement": "raw.FC 202435_s_at CYP1B1", "result": 1.96}, {"measurement": "raw.FC 202436_s_at CYP1B1", "result": 2.027}, {"measurement": "raw.FC 202437_s_at CYP1B1", "result": 1.809}, {"measurement": "IL1RN fold change (FC), all present probesets", "setting": "6h, GA vs mannitol, listed as GA", "result": "1.43 and 1.35 and 1.26"}, {"measurement": "Number of genes significantly modulated by Copaxone relative to mannitol", "setting": "6 hour", "result": "6,890"}, {"measurement": "IL10 fold change (FC)", "setting": "6 hour, GA vs mannitol", "result": 1.52}, {"measurement": "Number of genes Down-regulated by GA", "setting": "6 hr, FDR p < 0.05", "result": 4066}, {"measurement": "Number of genes Up-regulated by GA", "setting": "6 hr, FDR p < 0.05", "result": 2824}, {"measurement": "Number of genes Down-regulated by GA", "setting": "[1]", "result": 508}, {"measurement": "Number of genes Up-regulated by GA", "setting": "[1]", "result": 557}, {"measurement": "Number of genes Down-regulated by GA", "setting": "[2]", "result": 119}, {"measurement": "Number of genes Up-regulated by GA", "setting": "[2]", "result": 257}, {"measurement": "Number of genes Down-regulated by GA", "setting": "[3]", "result": 4909}, {"measurement": "Number of genes Up-regulated by GA", "setting": "[3]", "result": 3511}, {"measurement": "Number of genes significantly modulated by Copaxone relative to mannitol", "setting": "12 hours", "result": "3,118"}, {"measurement": "Number of genes Down-regulated by GA", "setting": "12 hr, FDR p < 0.05", "result": 1810}, {"measurement": "Number of genes Up-regulated by GA", "setting": "12 hr, FDR p < 0.05", "result": 1308}, {"measurement": "Number of genes Down-regulated by GA", "setting": "[4]", "result": 50}, {"measurement": "Number of genes Up-regulated by GA", "setting": "[4]", "result": 210}, {"measurement": "Number of genes Down-regulated by GA", "setting": "[5]", "result": 10}, {"measurement": "Number of genes Up-regulated by GA", "setting": "[5]", "result": 68}, {"measurement": "Number of genes Down-regulated by GA", "setting": "12 hr, nominal p < 0.05", "result": 3430}, {"measurement": "Number of genes Up-regulated by GA", "setting": "12 hr, nominal p < 0.05", "result": 2377}, {"measurement": "Number of genes significantly modulated by Copaxone relative to mannitol", "setting": "24 hours", "result": "1,791"}, {"measurement": "Number of genes Down-regulated by GA", "setting": "24 hr, FDR p < 0.05", "result": 1185}, {"measurement": "Number of genes Up-regulated by GA", "setting": "24 hr, FDR p < 0.05", "result": 606}, {"measurement": "Number of genes Down-regulated by GA", "setting": "[6]", "result": 6}, {"measurement": "Number of genes Up-regulated by GA", "setting": "[6]", "result": 57}, {"measurement": "Number of genes Down-regulated by GA", "setting": "[7]", "result": 0}, {"measurement": "Number of genes Up-regulated by GA", "setting": "[7]", "result": 15}, {"measurement": "Number of genes Down-regulated by GA", "setting": "24 hr, nominal p < 0.05", "result": 3724}, {"measurement": "Number of genes Up-regulated by GA", "setting": "24 hr, nominal p < 0.05", "result": 1410}, {"measurement": "CCL2 expression relative to mannitol control", "setting": "THP-1, 6 hours", "result": "decreased"}, {"measurement": "CD14 expression versus mannitol control", "setting": "THP-1, 6 hours", "result": "not modulated"}, {"measurement": "CD14 201743_at Copaxone Expression Value Range Maximum", "setting": "THP-1, all Copaxone samples", "result": 9.69}, {"measurement": "CD14 201743_at Copaxone Expression Value Range Minimum", "setting": "THP-1, all Copaxone samples", "result": 9.32}, {"measurement": "CISH 223377_x_at Copaxone Expression Value Range Maximum", "setting": "THP-1, all Copaxone samples", "result": 9.11}, {"measurement": "CISH 223377_x_at Copaxone Expression Value Range Minimum", "setting": "THP-1, all Copaxone samples", "result": 8.86}, {"measurement": "CISH 223961_s_at Copaxone Expression Value Range Maximum", "setting": "THP-1, all Copaxone samples", "result": 7.69}, {"measurement": "CISH 223961_s_at Copaxone Expression Value Range Minimum", "setting": "THP-1, all Copaxone samples", "result": 7.24}, {"measurement": "ICAM1 202637_s_at Copaxone Expression Value Range Maximum", "setting": "THP-1, all Copaxone samples", "result": 8.06}, {"measurement": "ICAM1 202637_s_at Copaxone Expression Value Range Minimum", "setting": "THP-1, all Copaxone samples", "result": 7.44}, {"measurement": "ICAM1 202638_s_at Copaxone Expression Value Range Maximum", "setting": "THP-1, all Copaxone samples", "result": 7.30}, {"measurement": "ICAM1 202638_s_at Copaxone Expression Value Range Minimum", "setting": "THP-1, all Copaxone samples", "result": 6.51}, {"measurement": "MMP9 203936_s_at Copaxone Expression Value Range Maximum", "setting": "THP-1, all Copaxone samples", "result": 9.97}, {"measurement": "MMP9 203936_s_at Copaxone Expression Value Range Minimum", "setting": "THP-1, all Copaxone samples", "result": 9.53}]}
